What was measured:
[1] = test system: diffuse large B-cell lymphoma cell line TMD-8; experiment: Pharmacodynamic assay, TMD-8 xenograft in NOD.SCID mice; type: in vivo; details: p.o. daily for 21 days
Description: Severe immunodeficiency NOD.SCID mice were purchased from Beijing Vital River Laboratory Animal Technology Co., Ltd., and were housed in SPF grade animal room. After TMD-8 cells were cultured to the sufficient amount, the cells were collected by centrifugation and washed twice with PBS. Finally, the cells were resuspended in serum-free RPMI 1640 medium plus Matrigel (1:1 v/v). 0.2 ml of cell suspension was injected subcutaneously on the right flank of each mouse using 1 ml syringe and 25 G syringe needle. The tumor size was measured with a caliper after about one week post injection. The tumor volume was calculated according to the following formula: tumor volume=(length×width^2)/2. When the tumor volume reached about 100-200 mm^3, the mice were grouped and p.o. administered daily for 21 days.

Recombinant Btk = Recombinant Btk (Homo sapiens, UniProt Q06187); experiment: Kinase activity (BTK) inhibition assay, TR-FRET; type: biochemical; details: read-out: BTK kinase inhibitory activity grade (A/B/C)
Description: Kinase Activity (BTK) Inhibition Assay
The inhibitory effects of the compounds disclosed herein on BTK kinase activity were tested in an assay based on a time resolved fluorescence resonance energy transfer (TR-FRET) method. Recombinant Btk was pre-incubated with the compound disclosed herein in an assay buffer containing 50 mM. Tris pH 7.4, 10 mM MgCl2, 2 mM MnCl2, 0.1 mM EDTA, 1 mM DTT, 20 nM SEB, 0.1% BSA, 0.005% tween-20 at room temperature for 1 hour. The reaction was initiated by the addition of ATP (at the ATP Km concentration) and the peptide substrate (Biotin-[…]-NH2). After incubation for 1 hour at room temperature, an equal volume of stop solution containing 50 mM HEPES pH 7.0, 800 mM KF, 20 mM EDTA, 0.1% BSA, p-Tyr66 antibody linked with Eu cryptate and streptavidin-labeled XL665 was added to stop the reaction. The plate was incubated for an additional hour at room temperature and then the TR-FRET signal was read on a BMG PHERAstar FS instrument (ex337 nm, em 620 nm/665 nm). Based on the ratio of the signal of fluorescence at […] to 665 nm, the enzyme activity was calculated with an increased compound concentration. IC50 of each compound was obtained by fitting the data to the four-parameter equation of Graphpad Prism software.

EGFR = EGFR (Homo sapiens, UniProt P00533); experiment: In vitro kinase selectivity assay, EGFR (TR-FRET); type: biochemical; details: read-out: EGFR kinase inhibitory activity grade
Description: (§1) The assay platform for EGFR and ITK kinase activities was established using time-resolved fluorescence resonance energy transfer-based method; the assay platform for LCK, SRC and LYN kinase activities was established using Z′-Lyte method; and the assay platform for TEC and JAK3 kinase activities was established using Lance Ultra method. The inhibitory effects of the compounds disclosed herein on different kinase activities were tested separately for each compound at 11 concentrations. The IC50 value of each compound was calculated using Graphpad Prism software.

SRC = SRC (Homo sapiens, UniProt P12931); experiment: In vitro kinase selectivity assay, SRC (Z'-Lyte); type: biochemical; details: read-out: SRC kinase inhibitory activity grade
Description: as §1

LCK = LCK (Homo sapiens, UniProt P06239); experiment: In vitro kinase selectivity assay, LCK (Z'-Lyte); type: biochemical; details: read-out: LCK kinase inhibitory activity grade
Description: as §1

LYN = LYN (Homo sapiens, UniProt P07948); experiment: In vitro kinase selectivity assay, LYN (Z'-Lyte); type: biochemical; details: read-out: LYN kinase inhibitory activity grade
Description: as §1

ITK = molecular target: T1, ITK (Homo sapiens, UniProt Q08881); experiment: In vitro kinase selectivity assay, ITK (TR-FRET); type: biochemical; details: read-out: ITK kinase inhibitory activity grade
T1 sequence (Q08881 1-620): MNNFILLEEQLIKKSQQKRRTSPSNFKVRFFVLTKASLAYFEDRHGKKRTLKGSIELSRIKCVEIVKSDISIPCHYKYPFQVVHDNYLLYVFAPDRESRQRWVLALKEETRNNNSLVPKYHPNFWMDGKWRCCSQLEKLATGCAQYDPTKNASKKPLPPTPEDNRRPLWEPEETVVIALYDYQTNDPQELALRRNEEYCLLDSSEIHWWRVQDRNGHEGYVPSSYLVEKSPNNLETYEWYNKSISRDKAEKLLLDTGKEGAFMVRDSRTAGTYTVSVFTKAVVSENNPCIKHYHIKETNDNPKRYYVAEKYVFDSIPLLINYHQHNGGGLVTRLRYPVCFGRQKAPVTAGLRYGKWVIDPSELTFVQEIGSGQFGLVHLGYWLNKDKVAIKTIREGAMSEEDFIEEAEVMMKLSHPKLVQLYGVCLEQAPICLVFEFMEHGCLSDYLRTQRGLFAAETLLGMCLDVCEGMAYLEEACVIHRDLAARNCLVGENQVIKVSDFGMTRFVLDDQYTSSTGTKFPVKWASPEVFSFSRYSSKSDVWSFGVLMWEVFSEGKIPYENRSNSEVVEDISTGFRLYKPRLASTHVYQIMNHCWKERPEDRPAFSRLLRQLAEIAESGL
Description: as §1

TEC = molecular target: T2, TEC (Homo sapiens, UniProt P42680); experiment: In vitro kinase selectivity assay, TEC (Lance Ultra); type: biochemical; details: read-out: TEC kinase inhibitory activity grade
T2 sequence (P42680 1-631): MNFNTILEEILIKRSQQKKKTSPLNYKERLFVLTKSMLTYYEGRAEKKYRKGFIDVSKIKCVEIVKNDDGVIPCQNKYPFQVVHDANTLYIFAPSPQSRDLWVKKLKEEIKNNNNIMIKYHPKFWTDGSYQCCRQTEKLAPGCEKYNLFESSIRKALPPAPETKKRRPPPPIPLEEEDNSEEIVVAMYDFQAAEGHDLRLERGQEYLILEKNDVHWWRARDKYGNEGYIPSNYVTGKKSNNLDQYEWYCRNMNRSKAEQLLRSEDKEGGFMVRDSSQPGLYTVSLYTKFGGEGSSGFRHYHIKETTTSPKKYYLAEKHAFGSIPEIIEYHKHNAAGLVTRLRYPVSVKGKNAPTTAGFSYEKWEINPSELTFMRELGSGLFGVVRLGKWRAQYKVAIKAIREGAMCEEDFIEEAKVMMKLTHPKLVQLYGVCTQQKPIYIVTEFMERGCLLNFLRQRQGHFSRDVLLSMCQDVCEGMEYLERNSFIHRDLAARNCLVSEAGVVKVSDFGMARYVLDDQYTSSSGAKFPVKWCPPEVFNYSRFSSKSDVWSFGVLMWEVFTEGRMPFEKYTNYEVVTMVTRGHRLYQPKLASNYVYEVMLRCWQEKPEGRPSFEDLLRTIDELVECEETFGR
Description: as §1

Sequence of Recombinant Btk (Q06187 whole entry): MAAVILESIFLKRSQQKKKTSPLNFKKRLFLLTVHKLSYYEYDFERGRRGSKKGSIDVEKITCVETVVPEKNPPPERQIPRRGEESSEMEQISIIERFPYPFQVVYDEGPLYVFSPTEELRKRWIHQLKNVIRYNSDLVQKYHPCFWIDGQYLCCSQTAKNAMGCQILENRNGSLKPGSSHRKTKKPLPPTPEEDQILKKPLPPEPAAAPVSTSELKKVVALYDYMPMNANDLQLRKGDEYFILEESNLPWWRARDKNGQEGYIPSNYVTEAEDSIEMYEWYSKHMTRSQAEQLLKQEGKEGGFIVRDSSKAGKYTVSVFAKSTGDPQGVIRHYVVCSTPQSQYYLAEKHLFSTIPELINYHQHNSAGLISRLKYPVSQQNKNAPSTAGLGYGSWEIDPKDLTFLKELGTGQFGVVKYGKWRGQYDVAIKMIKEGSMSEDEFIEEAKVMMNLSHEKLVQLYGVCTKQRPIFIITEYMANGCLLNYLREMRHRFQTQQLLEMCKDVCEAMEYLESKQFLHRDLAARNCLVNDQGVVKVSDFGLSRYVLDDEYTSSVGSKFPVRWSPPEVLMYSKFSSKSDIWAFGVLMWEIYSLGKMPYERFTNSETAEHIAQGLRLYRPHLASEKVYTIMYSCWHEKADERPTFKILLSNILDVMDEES
Sequence of LCK (P06239 whole entry, species assumed): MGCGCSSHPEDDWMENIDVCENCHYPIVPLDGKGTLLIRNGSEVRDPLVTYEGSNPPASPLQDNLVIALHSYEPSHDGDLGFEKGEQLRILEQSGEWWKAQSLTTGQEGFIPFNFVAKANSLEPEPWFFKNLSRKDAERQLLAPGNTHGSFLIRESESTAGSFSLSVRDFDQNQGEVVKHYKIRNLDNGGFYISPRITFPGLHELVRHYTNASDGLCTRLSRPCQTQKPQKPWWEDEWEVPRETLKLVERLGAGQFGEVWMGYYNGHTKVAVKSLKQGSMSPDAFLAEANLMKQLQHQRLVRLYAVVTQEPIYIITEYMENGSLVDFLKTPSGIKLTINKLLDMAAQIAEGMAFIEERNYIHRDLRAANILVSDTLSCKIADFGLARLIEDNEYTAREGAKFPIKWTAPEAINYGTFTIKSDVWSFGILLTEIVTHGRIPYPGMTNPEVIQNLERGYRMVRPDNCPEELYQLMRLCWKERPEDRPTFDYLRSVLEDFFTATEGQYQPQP
Sequence of LYN (P07948 whole entry, species assumed): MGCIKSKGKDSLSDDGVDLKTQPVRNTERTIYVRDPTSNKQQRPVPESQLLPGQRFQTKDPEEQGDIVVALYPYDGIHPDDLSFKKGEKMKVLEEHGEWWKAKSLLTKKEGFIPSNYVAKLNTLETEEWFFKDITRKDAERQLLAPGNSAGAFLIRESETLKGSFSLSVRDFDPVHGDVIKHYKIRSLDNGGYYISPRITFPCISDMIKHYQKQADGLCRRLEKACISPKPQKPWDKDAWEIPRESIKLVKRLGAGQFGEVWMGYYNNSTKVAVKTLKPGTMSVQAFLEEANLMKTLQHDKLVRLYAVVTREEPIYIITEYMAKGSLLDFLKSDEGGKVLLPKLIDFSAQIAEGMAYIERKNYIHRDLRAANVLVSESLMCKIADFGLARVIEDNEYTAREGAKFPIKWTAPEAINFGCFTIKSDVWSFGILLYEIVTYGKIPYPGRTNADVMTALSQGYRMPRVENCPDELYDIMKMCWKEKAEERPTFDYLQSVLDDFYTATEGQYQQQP
Sequence of SRC (P12931 whole entry, species assumed): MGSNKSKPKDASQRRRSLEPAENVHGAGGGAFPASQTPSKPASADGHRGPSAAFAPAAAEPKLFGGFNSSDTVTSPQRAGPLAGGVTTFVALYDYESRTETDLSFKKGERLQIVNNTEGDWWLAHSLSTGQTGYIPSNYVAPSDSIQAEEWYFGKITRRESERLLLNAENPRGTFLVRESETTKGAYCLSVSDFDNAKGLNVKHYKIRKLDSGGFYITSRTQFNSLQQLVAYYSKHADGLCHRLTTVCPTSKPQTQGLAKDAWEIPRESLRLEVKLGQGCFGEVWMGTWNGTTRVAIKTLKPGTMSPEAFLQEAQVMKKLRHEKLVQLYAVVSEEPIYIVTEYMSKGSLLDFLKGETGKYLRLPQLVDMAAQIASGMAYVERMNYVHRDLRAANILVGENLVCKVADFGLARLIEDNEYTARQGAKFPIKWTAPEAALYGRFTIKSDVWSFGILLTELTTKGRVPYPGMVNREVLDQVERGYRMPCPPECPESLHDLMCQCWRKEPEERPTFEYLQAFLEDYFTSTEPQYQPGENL
Sequence of EGFR (P00533 25-1210): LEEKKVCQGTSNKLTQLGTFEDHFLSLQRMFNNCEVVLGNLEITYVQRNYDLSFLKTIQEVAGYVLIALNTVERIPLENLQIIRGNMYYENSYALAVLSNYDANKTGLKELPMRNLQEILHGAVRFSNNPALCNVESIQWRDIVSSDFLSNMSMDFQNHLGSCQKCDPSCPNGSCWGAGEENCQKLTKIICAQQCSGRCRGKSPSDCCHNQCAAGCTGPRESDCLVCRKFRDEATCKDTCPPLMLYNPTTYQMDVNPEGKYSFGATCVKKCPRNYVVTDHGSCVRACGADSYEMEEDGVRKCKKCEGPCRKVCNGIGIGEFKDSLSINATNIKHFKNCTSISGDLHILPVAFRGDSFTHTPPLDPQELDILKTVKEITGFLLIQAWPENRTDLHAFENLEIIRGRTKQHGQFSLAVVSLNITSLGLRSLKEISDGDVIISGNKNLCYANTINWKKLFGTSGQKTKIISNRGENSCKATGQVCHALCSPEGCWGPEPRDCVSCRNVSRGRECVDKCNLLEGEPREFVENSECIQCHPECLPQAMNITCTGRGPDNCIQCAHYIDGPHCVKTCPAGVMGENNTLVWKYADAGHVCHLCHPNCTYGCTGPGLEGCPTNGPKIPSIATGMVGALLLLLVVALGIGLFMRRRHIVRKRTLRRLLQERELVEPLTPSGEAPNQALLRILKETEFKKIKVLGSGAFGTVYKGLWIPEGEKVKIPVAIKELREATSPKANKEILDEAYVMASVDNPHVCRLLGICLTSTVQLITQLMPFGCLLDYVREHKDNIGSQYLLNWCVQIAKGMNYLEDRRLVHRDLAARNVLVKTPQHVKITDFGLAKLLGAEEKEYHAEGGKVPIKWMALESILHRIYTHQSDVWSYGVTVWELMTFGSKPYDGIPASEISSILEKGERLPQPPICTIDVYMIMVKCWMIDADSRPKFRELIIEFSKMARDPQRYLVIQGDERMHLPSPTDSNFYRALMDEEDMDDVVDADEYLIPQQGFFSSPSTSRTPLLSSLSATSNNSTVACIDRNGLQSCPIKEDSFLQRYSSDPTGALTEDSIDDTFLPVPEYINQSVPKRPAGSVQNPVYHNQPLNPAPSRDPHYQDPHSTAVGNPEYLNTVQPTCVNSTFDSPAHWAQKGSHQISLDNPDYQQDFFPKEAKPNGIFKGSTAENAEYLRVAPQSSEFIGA

| Structure (SMILES) | IC50 (Recombinant Btk) [µM] | further results |
| --- | --- | --- |
| CC#CC(=O)N1C[C@H](n2nc(-c3ccc(Oc4ccc(F)cc4F)cc3)c(C(N)=O)c2N)CCC12CC2 [WS-422, (R)-5-amino-1-(4-(2-butynoyl)-4-azaspiro[2.5]oct-6-yl)-3-(4-(2,4-difluorophenoxy)phenyl)-1H-pyrazole-4-carboxamide] | – | growth of TMD-8 tumor in vivo [1]: significantly inhibited the growth |
| N#CN1CC(n2nc(-c3ccc(Oc4ccc(Cl)cn4)cc3)c(C(N)=O)c2N)CCC12CC2 (stereo not shown) [WS-405, 5-amino-3-(4-((5-chloropyridin-2-yl)oxy)phenyl)-1-(4-cyano-4-azaspiro[2.5]oct-6-yl)-1H-pyrazole-4-carboxamide] | < 0.1 | – |
| CC#CC(=O)N1C[C@@H](n2nc(-c3ccc(Oc4ccc(Cl)cn4)cc3)c(C(N)=O)c2N)CCC12CC2 [WS-417] | 0.1 to 1 | – |
| C[C@@H]1CC[C@H](n2nc(-c3ccc(Oc4ccc(Cl)cn4)cc3)c(C(N)=O)c2N)CN1C#N [WS-402, 5-amino-3-(4-((5-chloropyridin-2-yl)oxy)phenyl)-1-((3S,6R)-1-cyano-6-methylpiperidin-3-yl)-1H-pyrazole-4-carboxamide] | 0.1 to 1 | – |
| N#CN1C[C@@H](n2nc(-c3ccc(Oc4ccc(F)cc4F)cc3)c(C(N)=O)c2N)CCC12CC2 [WS-412, (S)-5-amino-1-(4-cyano-4-azaspiro[2.5]oct-6-yl)-3-(4-(2,4-difluorophenoxy)phenyl)-1H-pyrazole-4-carboxamide] | > 1 | – |
| CC#CC(=O)N1C[C@H](n2nc(-c3ccc(Oc4ccc(Cl)cn4)cc3)c(C(N)=O)c2N)CCC12CC2 [WS-416, (R)-5-amino-1-(4-(2-butynoyl)-4-azaspiro[2.5]oct-6-yl)-3-(4-((5-chloropyridin-2-yl)oxy)phenyl)-1H-pyrazole-4-carboxamide] | < 0.1 | IC50 (EGFR): > 1 µM; growth of TMD-8 tumor in vivo [1]: significantly inhibited the growth; IC50 (SRC): > 1 µM; IC50 (LCK): > 1 µM; IC50 (LYN): > 1 µM; IC50 (ITK): > 1 µM; IC50 (TEC): < 0.1 µM |
| N#CN1C[C@H](n2nc(-c3ccc(Oc4ccc(F)cc4F)cc3)c(C(N)=O)c2N)CCC12CC2 [WS-411, (R)-5-amino-1-(4-cyano-4-azaspiro[2.5]oct-6-yl)-3-(4-(2,4-difluorophenoxy)phenyl)-1H-pyrazole-4-carboxamide] | < 0.1 | IC50 (EGFR): > 1 µM; growth of TMD-8 tumor in vivo [1]: significantly inhibited the growth; IC50 (SRC): > 1 µM; IC50 (LCK): 0.1 to 1 µM; IC50 (LYN): 0.1 to 1 µM; IC50 (ITK): > 1 µM; IC50 (TEC): < 0.1 µM |
| C[C@H]1CC[C@@H](n2nc(-c3ccc(Oc4ccc(Cl)cn4)cc3)c(C(N)=O)c2N)CN1C#N [WS-401, 5-amino-3-(4-((5-chloropyridin-2-yl)oxy)phenyl)-1-((3R,6S)-1-cyano-6-methylpiperidin-3-yl)-1H-pyrazole-4-carboxamide] | < 0.1 | – |
| NC(=O)c1c(-c2ccc(Oc3ccc(F)cc3F)cc2)nn(C2CCC3(CC3)N(C(=O)/C=C/CO)C2)c1N (stereo not shown) [WS-409, (E)-5-amino-3-(4-(2,4-difluorophenoxy)phenyl)-1-(4-(4-hydroxybut-2-enoyl)-4-azaspiro[2.5]oct-6-yl)-1H-pyrazole-4-carboxamide] | < 0.1 | – |
| N#CN1CC(n2nc(-c3ccc(Oc4ccc(F)cc4F)cc3)c(C(N)=O)c2N)CCC12CC2 (stereo not shown) [WS-408, 5-amino-1-(4-cyano-4-azaspiro[2.5]oct-6-yl)-3-(4-(2,4-difluorophenoxy)phenyl)-1H-pyrazole-4-carboxamide] | < 0.1 | – |
| NC(=O)c1c(-c2ccc(Oc3ccc(Cl)cn3)cc2)nn(C2CCC3(CC3)N(C(=O)/C=C/CO)C2)c1N (stereo not shown) [WS-406, (E)-5-amino-3-(4-((5-chloropyridin-2-yl)oxy)phenyl)-1-(4-(4-hydroxybut-2-enoyl)-4-azaspiro[2.5]oct-6-yl)-1H-pyrazole-4-carboxamide] | < 0.1 | – |
| N#CN1C[C@@H](n2nc(-c3ccc(Oc4ccc(Cl)cn4)cc3)c(C(N)=O)c2N)CCC12CC2 [WS-414, (S)-5-amino-3-(4-((5-chloropyridin-2-yl)oxy)phenyl)-1-(4-cyano-4-azaspiro[2.5]oct-6-yl)-1H-pyrazole-4-carboxamide] | 0.1 to 1 | – |
| C[C@H]1CC[C@H](n2nc(-c3ccc(Oc4ccc(Cl)cn4)cc3)c(C(N)=O)c2N)CN1C#N [WS-404, 5-amino-3-(4-((5-chloropyridin-2-yl)oxy)phenyl)-1-((3S,6S)-1-cyano-6-methylpiperidin-3-yl)-1H-pyrazole-4-carboxamide] | 0.1 to 1 | – |
| C=CC(=O)N1CC(n2nc(-c3ccc(Oc4ccc(Cl)cn4)cc3)c(C(N)=O)c2N)CCC12CC2 (stereo not shown) [WS-407, 1-(4-acryloyl-4-azaspiro[2.5]oct-6-yl)-5-amino-3-(4-((5-chloropyridin-2-yl)oxy)phenyl)-1H-pyrazole-4-carboxamide] | < 0.1 | – |
| C[C@@H]1CC[C@@H](n2nc(-c3ccc(Oc4ccc(Cl)cn4)cc3)c(C(N)=O)c2N)CN1C#N [WS-403, 5-amino-3-(4-((5-chloropyridin-2-yl)oxy)phenyl)-1-((3R,6R)-1-cyano-6-methylpiperidin-3-yl)-1H-pyrazole-4-carboxamide] | 0.1 to 1 | – |
| C=CC(=O)N1CC(n2nc(-c3ccc(Oc4ccc(F)cc4F)cc3)c(C(N)=O)c2N)CCC12CC2 (stereo not shown) [WS-410, 1-(4-acryloyl-4-azaspiro[2.5]oct-6-yl)-5-amino-3-(4-(2,4-difluorophenoxy)phenyl)-1H-pyrazole-4-carboxamide] | < 0.1 | – |
| CC#CC(=O)N1C[C@H](n2nc(-c3ccc(Oc4ccc(F)cc4F)cc3)c(C(N)=O)c2N)CCC12CC2 [WS-421, (R)-5-amino-1-(4-(2-butynoyl)-4-azaspiro[2.5]oct-6-yl)-3-(4-(2,4-difluorophenoxy)phenyl)-1H-pyrazole-4-carboxamide] | < 0.1 | – |

Source: patent US10882843B2, “5-aminopyrazole carboxamide derivative as BTK inhibitor and preparation method and pharmaceutical composition thereof” (SUZHOU SINOVENT PHARMACEUTICALS CO., LTD., priority 2016, dated 2021)
